Where two headings read alike, the source gives them in different places.
How the values were obtained:
[1] = Growth inhibition assay (microtiter plate-based synergy assay); assay type: cell-based; conditions: 24 h
[2] = test system: consortium of bacteria: mixture of Pseudomonas aeruginosa, Klebsiella pneumoniae, Staphylococcus aureus, and Bacillus subtilis; assay: as above; assay type: cell-based; conditions: 24 h; for I90 value (minimum concentration in which growth of the consortium is at least 90% less than controls): single active alone

`NC(=O)C(Br)(Br)C(N)=O` [DBMAL, 2,2-dibromomalonamide] gave an inhibition at 0.39 µg/mL ([1]; Table 2, DBMAL 0.39 mg/l alone, read-out: % Inhibition of growth by DBMAL) of 11%, an inhibition at 0.78 µg/mL ([1]; Table 2, DBMAL 0.78 mg/l alone, read-out: % Inhibition of growth by DBMAL) of 13% and an inhibition at 1.56 µg/mL ([1]; Table 2, DBMAL 1.56 mg/l alone, read-out: % Inhibition of growth by DBMAL) of 15%. The inhibition at 3.13 µg/mL ([1]; Table 2, DBMAL 3.13 mg/l alone, read-out: % Inhibition of growth by DBMAL) was 23%, the inhibition at 6.25 µg/mL ([1]; Table 2, DBMAL 6.25 mg/l alone, read-out: % Inhibition of growth by DBMAL) was 0% and the inhibition at 12.5 µg/mL ([1]; Table 2, DBMAL 12.5 mg/l alone, read-out: % Inhibition of growth by DBMAL) was 98%. The inhibition at 0.39 µg/mL ([1]; Table 4, DBMAL 0.39 mg/l alone, read-out: % Inhibition of growth by DBMAL) was 6%, the inhibition at 0.78 µg/mL ([1]; Table 4, DBMAL 0.78 mg/l alone, read-out: % Inhibition of growth by DBMAL) was 2% and the inhibition at 1.56 µg/mL ([1]; Table 4, DBMAL 1.56 mg/l alone, read-out: % Inhibition of growth by DBMAL) was 1%. The inhibition at 6.25 µg/mL ([1]; Table 4, DBMAL 6.25 mg/l alone, read-out: % Inhibition of growth by DBMAL) was 23%, the inhibition at 25 µg/mL ([1]; Table 4, DBMAL 25.0 mg/l alone, read-out: % Inhibition of growth by DBMAL) was 100% and the inhibition at 0.39 µg/mL ([1]; Table 6, DBMAL 0.39 mg/l alone, read-out: % Inhibition of growth by DBMAL) was 0%. For the same compound, the inhibition at 0.78 µg/mL ([1]; Table 6, DBMAL 0.78 mg/l alone, read-out: % Inhibition of growth by DBMAL) was 6%, the inhibition at 3.13 µg/mL ([1]; Table 6, DBMAL 3.13 mg/l alone, read-out: % Inhibition of growth by DBMAL) was 11% and the inhibition at 6.25 µg/mL ([1]; Table 6, DBMAL 6.25 mg/l alone, read-out: % Inhibition of growth by DBMAL) was 28%. The inhibition at 12.5 µg/mL ([1]; Table 6, DBMAL 12.5 mg/l alone, read-out: % Inhibition of growth by DBMAL) was 100%, the inhibition at 25 µg/mL ([1]; Table 6, DBMAL 25.0 mg/l alone, read-out: % Inhibition of growth by DBMAL) was 100% and the inhibition at 0.39 µg/mL ([1]; Table 8, DBMAL 0.39 mg/l alone, read-out: % Inhibition of growth by DBMAL) was 3%. It also gave an inhibition at 0.78 µg/mL ([1]; Table 8, DBMAL 0.78 mg/l alone, read-out: % Inhibition of growth by DBMAL) of 1%, an inhibition at 1.56 µg/mL ([1]; Table 8, DBMAL 1.56 mg/l alone, read-out: % Inhibition of growth by DBMAL) of 0% and an inhibition at 3.13 µg/mL ([1]; Table 8, DBMAL 3.13 mg/l alone, read-out: % Inhibition of growth by DBMAL) of 8%. The inhibition at 6.25 µg/mL ([1]; Table 8, DBMAL 6.25 mg/l alone, read-out: % Inhibition of growth by DBMAL) was 45%, the inhibition at 12.5 µg/mL ([1]; Table 8, DBMAL 12.5 mg/l alone, read-out: % Inhibition of growth by DBMAL) was 100% and the inhibition at 25 µg/mL ([1]; Table 8, DBMAL 25.0 mg/l alone, read-out: % Inhibition of growth by DBMAL) was 99%. It also gave an inhibition at 0.39 µg/mL ([1]; Table 10, DBMAL 0.39 mg/l alone, read-out: % Inhibition of growth by DBMAL) of 3%, an inhibition at 0.78 µg/mL ([1]; Table 10, DBMAL 0.78 mg/l alone, read-out: % Inhibition of growth by DBMAL) of 0% and an inhibition at 1.56 µg/mL ([1]; Table 10, DBMAL 1.56 mg/l alone, read-out: % Inhibition of growth by DBMAL) of 1%. For the same compound, the inhibition at 3.13 µg/mL ([1]; Table 10, DBMAL 3.13 mg/l alone, read-out: % Inhibition of growth by DBMAL) was 0%, the inhibition at 6.25 µg/mL ([1]; Table 10, DBMAL 6.25 mg/l alone, read-out: % Inhibition of growth by DBMAL) was 44% and the inhibition at 12.5 µg/mL ([1]; Table 10, DBMAL 12.5 mg/l alone, read-out: % Inhibition of growth by DBMAL) was 100%. The inhibition at 25 µg/mL ([1]; Table 10, DBMAL 25.0 mg/l alone, read-out: % Inhibition of growth by DBMAL) was 100%, the inhibition at 0.39 µg/mL ([1]; Table 12, DBMAL 0.39 mg/l alone, read-out: % Inhibition of growth by DBMAL) was 3% and the inhibition at 0.78 µg/mL ([1]; Table 12, DBMAL 0.78 mg/l alone, read-out: % Inhibition of growth by DBMAL) was 0%. For the same compound, the inhibition at 1.56 µg/mL ([1]; Table 12, DBMAL 1.56 mg/l alone, read-out: % Inhibition of growth by DBMAL) was 1%, the inhibition at 3.13 µg/mL ([1]; Table 12, DBMAL 3.13 mg/l alone, read-out: % Inhibition of growth by DBMAL) was 0% and the inhibition at 6.25 µg/mL ([1]; Table 12, DBMAL 6.25 mg/l alone, read-out: % Inhibition of growth by DBMAL) was 44%. The inhibition at 12.5 µg/mL ([1]; Table 12, DBMAL 12.5 mg/l alone, read-out: % Inhibition of growth by DBMAL) was 100%, the inhibition at 25 µg/mL ([1]; Table 12, DBMAL 25.0 mg/l alone, read-out: % Inhibition of growth by DBMAL) was 100% and the inhibition at 0.39 µg/mL ([1]; Table 14, DBMAL 0.39 mg/l alone, read-out: % Inhibition of growth by DBMAL) was 3%. It also gave an inhibition at 0.78 µg/mL ([1]; Table 14, DBMAL 0.78 mg/l alone, read-out: % Inhibition of growth by DBMAL) of 0%, an inhibition at 1.56 µg/mL ([1]; Table 14, DBMAL 1.56 mg/l alone, read-out: % Inhibition of growth by DBMAL) of 0% and an inhibition at 3.13 µg/mL ([1]; Table 14, DBMAL 3.13 mg/l alone, read-out: % Inhibition of growth by DBMAL) of 0%. The inhibition at 6.25 µg/mL ([1]; Table 14, DBMAL 6.25 mg/l alone, read-out: % Inhibition of growth by DBMAL) was 34%, the inhibition at 12.5 µg/mL ([1]; Table 14, DBMAL 12.5 mg/l alone, read-out: % Inhibition of growth by DBMAL) was 93% and the inhibition at 25 µg/mL ([1]; Table 14, DBMAL 25.0 mg/l alone, read-out: % Inhibition of growth by DBMAL) was 100%.

In the case of `O=c1[nH]sc2ccccc12` [BIT, 1,2-benzisothiazolin-3-one], the “% Inhibition of growth by BIT” value ([2]; BIT 3.91 mg/l alone) is reported as 17%, the “% Inhibition of growth by BIT” value ([2]; BIT 7.81 mg/l alone) is reported as 46% and the “I90 value (minimum concentration in which growth of the consortium is at least 90% less than controls)” value [2] is reported as 15.63 mg/L.

In the case of `Cn1sc(Cl)cc1=O` [CMIT, 5-chloro-2-methyl-4-isothiazolin-3-one], the inhibition at 0.39 µg/mL ([1]; CMIT 0.39 mg/l alone, read-out: % Inhibition of growth by CMIT) is reported as 10%, the inhibition at 0.78 µg/mL ([1]; CMIT 0.78 mg/l alone, read-out: % Inhibition of growth by CMIT) is reported as 97% and the inhibition at 1.56 µg/mL ([1]; CMIT 1.56 mg/l alone, read-out: % Inhibition of growth by CMIT) is reported as 96%. The inhibition at 3.13 µg/mL ([1]; CMIT 3.13 mg/l alone, read-out: % Inhibition of growth by CMIT) was 98%, the inhibition at 6.25 µg/mL ([1]; CMIT 6.25 mg/l alone, read-out: % Inhibition of growth by CMIT) was 97% and the inhibition at 12.5 µg/mL ([1]; CMIT 12.5 mg/l alone, read-out: % Inhibition of growth by CMIT) was 96%. The inhibition at 25 µg/mL ([1]; CMIT 25.0 mg/l alone, read-out: % Inhibition of growth by CMIT) was 98% and the “I90 value (minimum concentration in which growth of the consortium is at least 90% less than controls)” value [2] was 0.78 mg/L.

With `CCCCn1sc2ccccc2c1=O` [BBIT, N-butyl-1,2-benzisothiazolin-3-one] the “% Inhibition of growth by BBIT” value ([2]; BBIT 6.25 mg/l alone) was 32%, the “% Inhibition of growth by BBIT” value ([2]; BBIT 12.5 mg/l alone) was 24% and the “% Inhibition of growth by BBIT” value ([2]; BBIT 25.0 mg/l alone) was 49%. For the same compound, the “I90 value (minimum concentration in which growth of the consortium is at least 90% less than controls)” value [2] was 50.0 mg/L.

In the case of `Cn1sccc1=O` [MIT, 2-methyl-4-isothiazolin-3-one], the inhibition at […] ([1]; MIT 0.19 mg/l alone) is reported as 0%, the inhibition at 0.39 µg/mL ([1]; MIT 0.39 mg/l alone, read-out: % Inhibition of growth by MIT) is reported as 0% and the inhibition at 0.78 µg/mL ([1]; MIT 0.78 mg/l alone, read-out: % Inhibition of growth by MIT) is reported as 0%. For the same compound, the inhibition at 1.56 µg/mL ([1]; MIT 1.56 mg/l alone, read-out: % Inhibition of growth by MIT) was 6%, the inhibition at 3.13 µg/mL ([1]; MIT 3.13 mg/l alone, read-out: % Inhibition of growth by MIT) was 6% and the inhibition at 6.25 µg/mL ([1]; MIT 6.25 mg/l alone, read-out: % Inhibition of growth by MIT) was 16%. The inhibition at 12.5 µg/mL ([1]; MIT 12.5 mg/l alone, read-out: % Inhibition of growth by MIT) was 38%, the inhibition at 25 µg/mL ([1]; MIT 25.0 mg/l alone, read-out: % Inhibition of growth by MIT) was 96% and the “I90 value (minimum concentration in which growth of the consortium is at least 90% less than controls)” value [2] was 25 mg/L.

In the case of `CCCCCCCCn1sccc1=O` [OIT, 2-n-octyl-4-isothiazolin-3-one], the inhibition at 3.91 µg/mL ([1]; OIT 3.91 mg/l alone) is reported as 0%, the inhibition at 7.81 µg/mL ([1]; OIT 7.81 mg/l alone) is reported as 7% and the inhibition at 15.63 µg/mL ([1]; OIT 15.63 mg/l alone) is reported as 24%. It also gave an inhibition at 31.25 µg/mL ([1]; OIT 31.25 mg/l alone) of 43%, an inhibition at 62.5 µg/mL ([1]; OIT 62.5 mg/l alone) of 64% and an inhibition at 125 µg/mL ([1]; OIT 125.0 mg/l alone) of 100%. For the same compound, the inhibition at 250 µg/mL ([1]; OIT 250.0 mg/l alone) was 100%, the inhibition at 500 µg/mL ([1]; OIT 500.0 mg/l alone) was 100% and the “I90 value (minimum concentration in which growth of the consortium is at least 90% less than controls)” value [2] was 125 mg/L.

For `Cn1sc2ccccc2c1=O` [MBIT, N-methyl-1,2-benzisothiazolin-3-one], the “% Inhibition of growth by MBIT” value ([2]; MBIT 0.78 mg/l alone) was 16%, the “% Inhibition of growth by MBIT” value ([2]; MBIT 1.56 mg/l alone) was 13% and the “% Inhibition of growth by MBIT” value ([2]; MBIT 6.25 mg/l alone) was 26%. For the same compound, the “% Inhibition of growth by MBIT” value ([2]; MBIT 12.5 mg/l alone) was 53%, the “% Inhibition of growth by MBIT” value ([2]; MBIT 25.0 mg/l alone) was 23% and the “% Inhibition of growth by MBIT” value ([2]; MBIT 50.0 mg/l alone) was 67%. For the same compound, the “I90 value (minimum concentration in which growth of the consortium is at least 90% less than controls)” value [2] was 100.0 mg/L.
